Experimental findings from patent US20210292400A1, “METHODS FOR TREATING, PREVENTING AND DETECTING THE PROGNOSIS OF COLORECTAL CANCER” (priority 2018, published 2021) are described below.

“Also recorded” adds a separate entry of the source.

Data set [1] concerns AA/C1/SB/10C (10C) cells. As to the kind of experiment: Cell proliferation assay, 10C cells. It counts as cell-based, human. Particulars: cells transfected with siRNA; compared to untreated cells; no Fn. The procedure:
(§1) Full length ANXA1 was amplified by PCR using primers listed in Table 1 and cloned in to pcDNA™3.1 (+) Mammalian Expression Vector. Plasmid transfection was performed using lipofectamine 2000 (Invitrogen, CA) following the manufacturer instructions. Control siRNA, ANXA1-specific siRNA and CDH1-specific siRNA were purchased from Invitrogen (CA). The siRNA utilized in these experiments included: Negative control: Invitrogen Stealth RNAi siRNA negative control cat number 12935300; Annexin siRNA: Invitrogen stealth siRNA (cat # ANXA1HSS100502) sequence UAACCAUUAUGGCCUUAUGCAAGGC (SEQ ID NO: 1); and E-cadherin siRNA: Invitrogen stealth siRNA (cat # CDH1HSS101669) sequence UUAAUCUCCAGCCAGUUGGCAGUGU (SEQ ID NO: 2). Lipofectamine RNAi MAX (Invitrogen, CA) was used for the siRNA transfection following manufacturer instructions.
(§2) Cells were seeded in 24 well plates at 5×10^4 cells per well. Cells were untreated or incubated with bacteria at an MOI of 1000:1. Cell numbers were counted at indicated time points using a hemocytometer as previously described (Rubinstein et al. 2013). Each experiment was performed in triplicate and repeated at least three times.

The test system of data set [2] is HCT116 cells. As to the kind of experiment: Cell proliferation assay, HCT116 cells. It counts as cell-based, human. The note with it: cells transfected with siRNA; compared to untreated cells; no Fn. The procedure: as §1
Annexin antibodies utilized in these experiments included: Annexin A1 (Thermo Fisher Scientific, cat #71-3400); Annexin A2 (Thermo Fisher Scientific, cat # PA5-27566); Annexin V (Thermo Fisher Scientific, cat # PA5-27872); Annexin A6 (Thermo Fisher Scientific, cat. #720161); and Annexin All (Thermo Fisher Scientific, cat # PA5-68093).
Cells were seeded in 24 well plates at 5×10^4 cells per well. […] Cell numbers were counted at indicated time points using a hemocytometer as previously described (Rubinstein et al. 2013). […]

Data set [3] concerns DLD1 cells. As to the kind of experiment: Cell proliferation assay, DLD1 cells. The note with it: cells transfected with siRNA; compared to untreated cells; no Fn. It is filed as cell-based, human. The procedure: as §1, §2
The test system of data set [4] is SW480 cells. As to the kind of experiment: Cell proliferation assay, SW480 cells. It is filed as cell-based, human. Particulars: cells transfected with siRNA; compared to untreated cells; no Fn. The procedure: as §1, §2
Data set [5] deals with HT29 cells. The data set is described as follows: Cell proliferation assay, HT29 cells. Particulars: cells transfected with siRNA; compared to untreated cells; no Fn. It counts as cell-based, human. The procedure: as §1, §2
Data set [6] relates to AA/C1/SB (SB) cells. As to the kind of experiment: Cell proliferation assay, non-tumorigenic SB cells. It counts as cell-based, human. Particulars: cells transfected with siRNA; compared to untreated cells; no Fn. The procedure:
as §1, §2

The test system of data set [7] is RKO cells. The data set is described as follows: Cell proliferation assay, RKO cells. It counts as cell-based, human. Particulars: cells transfected with siRNA; RKO expressed the least Annexin A1. The procedure:
as §1, §2

The subject of data set [8] is HCT116 cells. As to the kind of experiment: Tumor xenograft of siRNA-treated HCT116 cells in nude mice. It counts as in vivo. The note with it: HCT116 cells treated with siRNA, injected subcutaneously and bilaterally; vs control siRNA; 7 days post injection. The procedure:
FIG. 1H are graphs and images of xenografted tumor growth in nude mice following subcutaneous and bilateral inoculation of HCT116 cells transfected with control siRNA (left side) or ANXA1-specific siRNA (right side). The tumor volumes were measured after 7 days post injection (left panel, n=4). For each mouse, the tumor resulting from ANXA1 siRNA-treated cells was normalized to that arising from control siRNA-treated cells which was designated to 100%. The line represents the average. *p<0.05 (unpaired t-test). Representative tumors are shown on the right panel top, tumors arising from control siRNA treated cells; bottom, tumors arising from ANXA1-specific siRNA treated cells.
Four-week old nude mice were purchased from Taconic Biosciences (NY, USA). An inoculum of 1×10^7 HCT 116 cells treated with either control or ANXA1-specific siRNA were injected subcutaneously and bilaterally into the nude mice, with control cells injected on the left side and ANXA1-knockdown cells on the right side. On day 7-9 post-injection, the tumor length and width were measured using calipers and tumor volumes were calculated using the following formula: Volume=(width)^2×length/2.

Data set [9] deals with F. nucleatum 12230 attachment and invasion to 10C cells. The data set is described as follows: Cell culture attachment and invasion assay of F. nucleatum 12230 to 10C cells. It counts as cell-based, human. Particulars: 10C transfected with siRNA. The procedure:
Fn attachment and invasion to the untreated SB cells were designated as 100%, respectively; all other values were expressed as relative to those obtained with untreated SB. Data are mean values±SEM. *p<0.05, ** p<0.01 and *** p<0.001 (one-way ANOVA).
Data are mean values±SD. The experiment was performed in triplicates and repeated twice. *p<0.05 (student's t-test).
The assay was performed as previously described (Han et al. 2000). Briefly, host cells were seeded in 24 well plates and grown until 80% confluency. Bacteria were added at an MOI 50:1 and incubated for 1 hour at 37° C. in 5% CO2. Following washes with PBS and lysis with water for 20 minutes, serial dilutions of the lysates were plated onto blood agar plates to enumerate the viable bacterial counts. For the invasion assay, bacteria were incubated with the host cells for 3 hours followed by treatment with 300 μg/ml gentamicin and 200 μg/ml metronidazole for 1 hour at 37° C. Following washes with PBS, the cells were lysed with water and intracellular bacterial counts were determined as described above. The levels of attachment and invasion were expressed as the percentage of bacteria recovered following cell lysis relative to the total number of bacteria initially added. Each experiment was performed in triplicate and repeated at least three times.

Data set [10] concerns β-catenin in 10C cells. As to the kind of experiment: Flow cytometry of β-catenin expression after F. nucleatum incubation, 10C cells. It counts as cell-based, human. Particulars: 10C cells transfected with siRNA, then Fn 12230 MOI approximately 20:1. The procedure: (§3) FIG. 3G are graphs of the results of flow cytometry analysis of β-catenin expression in 10C, HCT 116, and DLD1 cells following transfection with control siRNA (clear bars) or ANXA1-specific siRNA (solid bars) and subsequent incubation with F. nucleatum 12230 at MOI of approximately 20:1 for indicated time periods. The geometric means of cells treated with control siRNA at time 0 was designated as 1. Data are mean values±SD. *** p<0.001. The experiment was performed in duplicates or triplicates and repeated 1-3 times. **p<0.01, ***p<0.001 (two-way ANOVA).
(§4) Approximately a total of 2×10^5 cells were incubated with Fn or purified FadA in 35 mm dish at 37° C. for indicated time periods. After washing with PBS, the cells were incubated with enzyme-free cell dissociation buffer (Thermo Fisher Scientific) for 5 min at 37° C. followed by addition of 1 ml DMEM. The cells were collected and centrifuged at 500 g for 3 minutes. The cell pellet was fixed with 75% cold ethanol and kept at −20° C. The pellet was centrifuged again at 2500 g for 10 minutes and washed with phosphate citrate buffer (200 mM Na2HPO4, 100 mM citric acid, pH 7.4), followed by blocking with PBS containing 2% skim milk at room temperature for 1 hour. […] After washing the cells with PBS, the flow cytometric data were acquired by a BD LSR II flow cytometer and analyzed using Flow Jo software (Tree Star, San Carlos, Calif.).
A general note: Flow cytometry measures light scatter and fluorescence of single cells or particles in a stream.

The test system of data set [11] is β-catenin in HCT116 cells. As to the kind of experiment: Flow cytometry of β-catenin expression after F. nucleatum incubation, HCT116 cells. Particulars: HCT116 cells transfected with siRNA, then Fn 12230 MOI approximately 20:1. It is filed as cell-based, human. The procedure: as §3, §4
For data set [12], the system named is β-catenin in DLD1 cells. As to the kind of experiment: Flow cytometry of β-catenin expression after F. nucleatum incubation, DLD1 cells. It is filed as cell-based, human. The note with it: DLD1 cells transfected with siRNA, then Fn 12230 MOI approximately 20:1. The procedure:
as §3, §4

Data set [13] concerns β-catenin in 10C cells. The data set is described as follows: Immuno-staining of β-catenin nuclear translocation, 10C cells. It counts as cell-based, human. The note with it: 10C cells transfected with siRNA, then Fn 12230 MOI about 100:1 for 2 hours. The procedure: The images were captured with confocal microscope at 800× magnification. −, no bacteria added. Note the increased expression of β-catenin and its nucleus translocation in response to Fn in control siRNA-treated cells, compared to ANXA1 siRNA-treated cells.
(§5) An aliquot of 1×10^3-1×10^5 cells were seeded into Nunc Lab-Tek II Chamber Slide System (Thermo Fisher Scientific) in 400 μl and allowed to grow for 2-5 days till reaching desired confluency. Following washes with DMEM, the cells were incubated with CFSE-labeled Fn or Alexa Fluor™488-conjugated FadAc, mFadA, and BSA (300 μg/ml) for indicated time periods. Following washes of ten times with DMEM, the cells were fixed in PBS containing 4% paraformaldehyde at room temperature for 15 minutes, followed by neutralization in PBS containing 1% glycine at room temperature for 15 minutes. After blocking with PBS containing 2% skim milk and 0.3% Triton X-100 for 1 hour at 4° C., the cells were incubated overnight at 4° C. with goat anti-human E-cadherin polyclonal antibodies (1:400 dilution, R&D Systems, MN) and rabbit anti-AnnexinA1 polyclonal antibodies (1:400 dilution, Invitrogen) or rabbit anti-β-catenin polyclonal IgG (1:400 dilution, Invitrogen) in blocking solution. […]

Data set [14] concerns β-catenin in DLD1 cells. The data set is described as follows: β-catenin nucleus translocation, DLD1 cells. It is filed as cell-based, human. The note with it: Annexin A1 knocked down by siRNA. The procedure:
as §5, with “solution. After washing three times with PBS containing 0.3% Triton X-100, the cells were incubated with Cy3-conjugated donkey anti-goat IgG (1:1000 dilution, Jackson ImmunoResearch, West Grove, Pa.) and Alexa Fluor®680-conjugated donkey anti-rabbit IgG (1:1000 dilution, Invitrogen), washed, and covered in mounting medium containing DAPI (Vector Laboratories, CA, USA).” for “solution.”

In the case of “ANXA1-specific siRNA: Invitrogen stealth siRNA cat # ANXA1HSS100502, sequence UAACCAUUAUGGCCUUAUGCAAGGC (SEQ ID NO: 1) (UAACCAUUAUGGCCUUAUGCAAGGC; commercial Invitrogen Stealth siRNA, chemistry not given here)”, in data set [1], the “growth of 10C cells” value was “inhibited the growth”. The “growth of HCT116 cells” value in data set [2] was “inhibited the growth”. For the same substance, the “growth of DLD1 cells” value in [3] was “inhibited the growth”. The “growth of SW480 cells” value in [4] is “inhibited the growth”. In addition, in [5], the “growth of HT29 cells” value is on record as “inhibited the growth”. Besides, the “growth of non-tumorigenic SB cells” value in [6] was “without affecting”. In addition, the “growth of RKO cells” value in data set [7] is “without affecting”. Besides, the “xenografted tumor growth (tumor volume)” value in [8] is recorded as “significantly attenuated tumor growth”. Further, the “Fn binding (attachment) to 10C cells” value in [9] (Fn 12230 MOI 50:1, 1 hour) was “effectively reduced”. For the same substance, in data set [9] (Fn 12230 MOI 50:1, 3 hours), the “Fn invasion of 10C cells” value is reported as “effectively reduced”. Moreover, the “F. nucleatum-mediated activation of β-catenin expression” value in data set [10], in [11] and in data set [12] was “abolished” each time. In addition, the “nuclear translocation of β-catenin” value in data set [13] is “abolished; also recorded: inhibited”. The “nucleus translocation of β-catenin” value in [14] is given as “abolished”.
